Assay results: patent US11554171B2, “Compounds and methods for the targeted degradation of bromodomain-containing proteins” (Arvinas Operations, Inc., priority 2015, dated 2023)

Test system: c-myc in 22RV-1 cells
Assay: Human c-myc ELISA assay
Format: cell-based
Settings: Homo sapiens; for Emax: 22Rv1, 18 h, read-out: Degradation of BRD4: Maximum inhibition (%) c-Myc ELISA in 22RV1 cells; for DC50: 22Rv1, read-out: Degradation of BRD4: DC50 (uM) c-Myc ELISA in 22RV1 cells
Outline: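 22RV-1 cells treated 18 h with 8-point 1:3 compound dilutions (final top 300 nM or 1 μM, 0.1% DMSO). Cells lysed in RIPA buffer with protease/phosphatase inhibitors, and c-myc protein in cleared lysate quantified by ELISA against a standard curve. DC50 reported for c-myc suppression.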

| Structure (SMILES) | Emax [%] | DC50 [µM] |
| --- | --- | --- |
| Cc1ncsc1-c1ccc(CNC(=O)[C@@H]2C[C@@H](O)CN2C(=O)[C@@H](NC(=O)COCCOc2cc(-c3ccc([C@@H](C)NC(=O)C[C@@H]4N=C(c5ccc(Cl)cc5)c5c(sc(C)c5C)-n5c(C)nnc54)cc3)ccn2)C(C)(C)C)cc1 [Example 36, (2S,4R)-1-[(2S)-2-(2-{2-[(4-{4-[(1R)-1-{2-[(9S)-7-(4-chlorophenyl)-4,5,13-trimethyl-3-thia-1,8,11,12-tetraazatricyclo[8.3.0.0^2,^6]trideca-2(6),4,7,10,12-pentaen-9-yl]acetamido}ethyl]phenyl}pyridin-2-yl)oxy]ethoxy}acetamido)-3,3-dimethylbutanoyl]-4-hydroxy-N-{[4-(4-methyl-1,3-thiazol-5-yl)phenyl]methyl}pyrrolidine-2-carboxamide] | 97 | 0.01 to 0.1 |
| Cc1sc2c(c1C)C(c1ccc(Cl)cc1)=NC(CC(=O)N[C@H]1C[C@H](Oc3ccc(CC(=O)N[C@H](C(=O)N4C[C@H](O)C[C@H]4C(=O)N[C@@H](C)c4ccc(C#N)cc4)C(C)(C)C)cc3)C1)c1nnc(C)n1-2 (stereo partly drawn) [Example 279] | 65.4 | 0.1 to 1 |
| Cc1ncsc1-c1ccc([C@H](C)NC(=O)[C@@H]2C[C@@H](OC(=O)[C@@H](N)C(C)C)CN2C(=O)[C@@H](NC(=O)c2cc3cc(O[C@H]4C[C@@H](NC(=O)C[C@@H]5N=C(c6ccc(Cl)cc6)c6c(sc(C)c6C)-n6c(C)nnc65)C4)ccc3o2)C(C)(C)C)cc1 [Example 338] | 100 | < 0.01 |
| Cc1ncsc1-c1ccc(CNC(=O)[C@@H]2C[C@@H](O)CN2C(=O)[C@@H](NC(=O)COCCCOCCOc2cc(NC(=O)C[C@@H]3N=C(c4ccc(Cl)cc4)c4c(sc(C)c4C)-n4c(C)nnc43)ccc2F)C(C)(C)C)cc1 [Example 130] | 99 | < 0.01 |
| Cc1ncsc1-c1ccc(CNC(=O)[C@@H]2C[C@@H](O)CN2C(=O)[C@@H](NC(=O)COCCCOCC#Cc2ccc([C@@H](C)NC(=O)C[C@@H]3N=C(c4ccc(Cl)cc4)c4c(sc(C)c4C)-n4c(C)nnc43)cc2)C(C)(C)C)cc1 [Example 39, (2S,4R)-1-[(2S)-2-(2-{3-[(3-{4-[(1R)-1-{2-[(9S)-7-(4-chlorophenyl)-4,5,13-trimethyl-3-thia-1,8,11,12-tetraazatricyclo[8.3.0.0^2,^6]trideca-2(6),4,7,10,12-pentaen-9-yl]acetamido}-ethyl]phenyl}prop-2-yn-1-yl)oxy]propoxy}acetamido)-3,3-dimethylbutanoyl]-4-hydroxy-N-{[4-(4-methyl-1,3-thiazol-5-yl)phenyl]methyl}pyrrolidine-2-carboxamide] | 99 | 0.01 to 0.1 |
| Cc1ncsc1-c1ccc([C@H](C)NC(=O)[C@@H]2C[C@H](O)CN2C(=O)[C@@H](NC(=O)COCCCOCCNC(=O)C[C@@H]2N=C(c3ccc(Cl)cc3)c3c(sc(C)c3C)-n3c(C)nnc32)C(C)(C)C)cc1 [Example 71] | 11.2 | > 1 |
| Cc1ncsc1-c1ccc([C@H](C)NC(=O)[C@@H]2C[C@@H](O)CN2C(=O)[C@@H](C(C)C)n2cc(-c3ccnc(O[C@H]4C[C@@H](NC(=O)C[C@@H]5N=C(c6ccc(Cl)cc6)c6c(sc(C)c6C)-n6c(C)nnc65)C4)n3)cn2)cc1 [Example 300] | 24 | > 1 |
| Cc1ncsc1-c1ccc([C@H](C)NC(=O)[C@@H]2C[C@@H](O)CN2C(=O)[C@H](C(C)C)n2cc(-c3cc(O[C@H]4C[C@@H](NC(=O)C[C@@H]5N=C(c6ccc(Cl)cc6)c6c(sc(C)c6C)-n6c(C)nnc65)C4)ccn3)cn2)cc1 [Example 302] | 92 | 0.01 to 0.1 |
| Cc1ncsc1-c1ccc(CNC(=O)[C@@H]2C[C@@H](O)CN2C(=O)[C@@H](c2cnn(CCCOCCNC(=O)C[C@@H]3N=C(c4ccc(Cl)cc4)c4c(sc(C)c4C)-n4c(C)nnc43)c2)C(C)C)cc1 [Example 144] | 73 | 0.1 to 1 |
| Cc1sc2c(c1C)C(c1ccc(Cl)cc1)=N[C@@H](CC(=O)N[C@H]1C[C@@H](Oc3cccc(-c4cnn([C@@H](C(=O)N5C[C@H](O)C[C@H]5C(=O)N[C@@H](C)c5ccc(-c6nccn6C)cc5)C(C)C)c4)c3)C1)c1nnc(C)n1-2 [Example 290] | 15.5 | > 1 |
| Cc1ncsc1-c1ccc(CNC(=O)[C@@H]2C[C@@H](O)CN2C(=O)[C@H](c2cc(Oc3ccc(O[C@H]4C[C@@H](NC(=O)C[C@@H]5N=C(c6ccc(Cl)cc6)c6c(sc(C)c6C)-n6c(C)nnc65)C4)nc3)no2)C(C)C)cc1 [Example 324] | 31.6 | > 1 |
| Cc1ncsc1-c1ccc([C@H](C)NC(=O)[C@@H]2C[C@@H](O)CN2C(=O)[C@@H](NC(=O)CCc2cccc(OCCNC(=O)C[C@@H]3N=C(c4ccc(Cl)cc4)c4c(sc(C)c4C)-n4c(C)nnc43)c2)C(C)(C)C)cc1 [Example 85] | 100 | < 0.01 |
| Cc1ncsc1-c1ccc(CNC(=O)[C@@H]2C[C@@H](O)CN2C(=O)[C@@H](NC(=O)COCCOCCOCCOCCOc2ccc(NC(=O)C[C@@H]3N=C(c4ccc(Cl)cc4)c4c(sc(C)c4C)-n4c(C)nnc43)cc2)C(C)(C)C)cc1 [Example 12] | 100 | 0.01 to 0.1 |
| Cc1ncsc1-c1ccc(CNC(=O)[C@@H]2C[C@@H](O)CN2C(=O)[C@@H](c2cc(OCCN3CC[C@@H](NC(=O)C[C@@H]4N=C(c5ccc(Cl)cc5)c5c(sc(C)c5C)-n5c(C)nnc54)C3)no2)C(C)C)cc1 (single isomer, unassigned) [Example 312] | 87.5 | < 0.01 |
| Cc1ncsc1-c1ccc([C@H](C)NC(=O)[C@@H]2C[C@@H](O)CN2C(=O)[C@H](C(C)C)n2cc(-c3ccnc(N4CC(NC(=O)C[C@@H]5N=C(c6ccc(Cl)cc6)c6c(sc(C)c6C)-n6c(C)nnc65)C4)c3)cn2)cc1 [Example 248] | 95.9 | 0.01 to 0.1 |
| Cc1ncsc1-c1ccc([C@H](C)NC(=O)[C@@H]2C[C@@H](O)CN2C(=O)[C@@H](NC(=O)COc2ccc(O[C@H]3C[C@H](NC(=O)C[C@@H]4N=C(c5ccc(Cl)cc5)c5c(sc(C)c5C)-n5c(C)nnc54)C3)nc2)C(C)(C)C)cc1 [Example 141, (2S,4R)-1-[(2S)-3,3-dimethyl-2-[2-({6-[(1,3trans)-3-{2-[(9S)-7-(4-chlorophenyl)-4,5,13-trimethyl-3-thia-1,8,11,12-tetraazatricyclo[8.3.0.0^2,^6]trideca-2(6),4,7,10,12-pentaen-9-yl]acetamido}cyclobutoxy]pyridin-3-yl}oxy)acetamido]butanoyl]-4-hydroxy-N-[(1S)-1-[4-(4-methyl-1,3-thiazol-5-yl)phenyl]ethyl]pyrrolidine-2-carboxamide] | 98 | < 0.01 |
| Cc1sc2c(c1C)C(c1ccc(Cl)cc1)=N[C@@H](CC(=O)N[C@H]1C[C@H](Oc3ccc(CC(=O)N[C@H](C(=O)N4C[C@H](O)C[C@H]4C(=O)N[C@@H](C)c4ccc(C(=O)N5CCC5)cc4)C(C)(C)C)cc3)C1)c1nnc(C)n1-2 [Example 282] | 25.4 | > 1 |
| Cc1ncsc1-c1ccc([C@H](C)NC(=O)[C@@H]2C[C@@H](O)CN2C(=O)[C@@H](C(C)C)n2cc(-c3ccnc(N4CC[C@H](NC(=O)C[C@@H]5N=C(c6ccc(Cl)cc6)c6c(sc(C)c6C)-n6c(C)nnc65)C4)c3)cn2)cc1 [Example 263] | 23.5 | > 1 |
| Cc1ncoc1-c1ccc(CNC(=O)[C@@H]2C[C@@H](O)CN2C(=O)[C@H](C(C)C)n2cc(-c3ccnc(O[C@H]4C[C@@H](NC(=O)C[C@@H]5N=C(c6ccc(Cl)cc6)c6c(sc(C)c6C)-n6c(C)nnc65)C4)c3)cn2)cc1 [Example 295] | 93.8 | 0.1 to 1 |
| Cc1ncsc1-c1ccc(CNC(=O)[C@@H]2C[C@@H](O)CN2C(=O)[C@H](C(C)C)N2Cc3ccccc3C2=O)c(OCCOCCOCCCOCCOCCNC(=O)C[C@@H]2N=C(c3ccc(Cl)cc3)c3c(sc(C)c3C)-n3c(C)nnc32)c1 [Example 5] | 25 | > 1 |
| Cc1ncsc1-c1ccc([C@H](C)NC(=O)[C@@H]2C[C@@H](O)CN2C(=O)[C@@H](NC(=O)c2cc3ccc(O[C@H]4C[C@H](NC(=O)C[C@@H]5N=C(c6ccc(Cl)cc6)c6c(sc(C)c6C)-n6c(C)nnc65)C4)cc3o2)C(C)(C)C)cc1 [Example 229] | 100 | < 0.01 |
| Cc1ncsc1-c1ccc([C@H](C)NC(=O)[C@@H]2C[C@@H](O)CN2C(=O)[C@@H](NC(=O)COCCOCCCOc2ccc([C@H](C)NC(=O)C[C@@H]3N=C(c4ccc(Cl)cc4)c4c(sc(C)c4C)-n4c(C)nnc43)cc2)C(C)(C)C)cc1 [Example 34] | 99.7 | 0.01 to 0.1 |
| Cc1ncsc1-c1ccc([C@H](C)NC(=O)[C@@H]2C[C@@H](O)CN2C(=O)[C@@H](NC(=O)/C=C/c2cc(O[C@H](C)CNC(=O)C[C@@H]3N=C(c4ccc(Cl)cc4)c4c(sc(C)c4C)-n4c(C)nnc43)ccc2F)C(C)(C)C)cc1 [Example 197] | 91.5 | < 0.01 |
| Cc1ncsc1-c1ccc([C@H](C)NC(=O)[C@@H]2C[C@@H](O)CN2C(=O)[C@@H](NC(=O)CN2CCC(O[C@H]3C[C@H](NC(=O)C[C@@H]4N=C(c5ccc(Cl)cc5)c5c(sc(C)c5C)-n5c(C)nnc54)C3)CC2)C(C)(C)C)cc1 [Example 306, (2S,4R)-1-[(2S)-3,3-dimethyl-2-(2-{4-[(1,3-trans)-3-{2-[(9S)-7-(4-chlorophenyl)-4,5,13-trimethyl-3-thia-1,8,11,12-tetraazatricyclo[8.3.0.0^2,^6]trideca-2(6),4,7,10,12-pentaen-9-yl]acetamido}cyclobutoxy]piperidin-1-yl}acetamido)butanoyl]-4-hydroxy-N-[(1S)-1-[4-(4-methyl-1,3-thiazol-5-yl)phenyl]ethyl]pyrrolidine-2-carboxamide] | 100 | < 0.01 |
